The results in this text go back to publication PMC6988797, “Antiarrhythmic Properties of Ranolazine: Inhibition of Atrial Fibrillation Associated TASK-1 Potassium Channels” (Frontiers in Pharmacology, 2019).

pIC50: −log10 of the molar value.

Common to all, as to format: cell-based
One test deals with T1, TASK-1 (Homo sapiens, UniProt O14649).
T1 construct: gene KCNK3
Description: whole-cell patch clamp in CHO cells; two-electrode voltage clamp in Xenopus laevis oocytes; pore mutagenesis.

The target of the next test is T2, TASK-3 (Homo sapiens, UniProt Q9NPC2).
T2 construct: gene KCNK9
T2 sequence (Q9NPC2 whole entry): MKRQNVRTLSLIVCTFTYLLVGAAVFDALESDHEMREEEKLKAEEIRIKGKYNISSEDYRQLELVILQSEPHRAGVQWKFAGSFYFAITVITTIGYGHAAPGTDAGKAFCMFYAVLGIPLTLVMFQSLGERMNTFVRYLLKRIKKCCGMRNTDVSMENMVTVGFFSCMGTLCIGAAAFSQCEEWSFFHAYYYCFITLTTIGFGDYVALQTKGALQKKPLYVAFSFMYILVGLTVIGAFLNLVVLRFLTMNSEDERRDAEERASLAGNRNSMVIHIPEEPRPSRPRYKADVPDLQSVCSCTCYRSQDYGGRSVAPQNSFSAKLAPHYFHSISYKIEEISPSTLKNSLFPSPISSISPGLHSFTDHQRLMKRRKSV
As to the kind of experiment: two-electrode voltage clamp in Xenopus laevis oocytes, […] ranolazine.

The target in a further test is T3, TALK-2 (Homo sapiens, UniProt Q96T54).
T3 construct: gene KCNK17
T3 sequence (Q96T54 1-332): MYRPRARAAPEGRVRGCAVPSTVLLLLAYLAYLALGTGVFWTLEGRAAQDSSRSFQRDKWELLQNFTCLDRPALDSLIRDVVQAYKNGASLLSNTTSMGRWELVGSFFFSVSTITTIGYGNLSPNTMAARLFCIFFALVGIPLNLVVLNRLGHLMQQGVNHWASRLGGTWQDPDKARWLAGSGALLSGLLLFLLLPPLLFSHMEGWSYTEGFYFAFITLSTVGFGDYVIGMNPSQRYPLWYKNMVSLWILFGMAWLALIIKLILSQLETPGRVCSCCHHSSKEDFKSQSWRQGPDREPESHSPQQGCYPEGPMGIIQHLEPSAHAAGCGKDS
Described as above.

Another test deals with T4, TASK-2 (Homo sapiens, UniProt O95279).
T4 construct: gene KCNK5
T4 sequence (O95279 1-499): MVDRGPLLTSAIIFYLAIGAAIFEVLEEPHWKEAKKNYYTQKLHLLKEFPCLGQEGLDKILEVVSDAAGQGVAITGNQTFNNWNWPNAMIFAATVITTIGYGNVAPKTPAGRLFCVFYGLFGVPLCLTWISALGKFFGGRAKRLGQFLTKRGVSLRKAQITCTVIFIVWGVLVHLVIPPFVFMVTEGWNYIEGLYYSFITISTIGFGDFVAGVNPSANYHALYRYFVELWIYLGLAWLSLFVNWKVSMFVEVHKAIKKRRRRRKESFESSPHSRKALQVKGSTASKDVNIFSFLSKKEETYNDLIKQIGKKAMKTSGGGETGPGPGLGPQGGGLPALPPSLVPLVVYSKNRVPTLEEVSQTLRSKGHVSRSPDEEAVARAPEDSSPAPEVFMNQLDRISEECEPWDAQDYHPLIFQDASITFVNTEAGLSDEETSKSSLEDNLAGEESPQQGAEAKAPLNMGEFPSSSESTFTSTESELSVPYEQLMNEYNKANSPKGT
Described as above.

The target of the next test is T5, TALK-1 (Homo sapiens, UniProt Q96T55).
T5 construct: gene KCNK16
T5 sequence (Q96T55 1-309): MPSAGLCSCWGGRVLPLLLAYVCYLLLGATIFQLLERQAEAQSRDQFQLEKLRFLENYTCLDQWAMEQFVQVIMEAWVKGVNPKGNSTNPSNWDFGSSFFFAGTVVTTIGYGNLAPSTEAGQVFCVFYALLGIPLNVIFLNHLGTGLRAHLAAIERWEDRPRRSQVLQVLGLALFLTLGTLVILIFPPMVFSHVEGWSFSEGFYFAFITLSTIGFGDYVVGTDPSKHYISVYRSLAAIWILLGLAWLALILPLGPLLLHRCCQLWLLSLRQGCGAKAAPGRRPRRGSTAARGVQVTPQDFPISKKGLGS
Described as above.

T1 sequence (O14649 whole entry): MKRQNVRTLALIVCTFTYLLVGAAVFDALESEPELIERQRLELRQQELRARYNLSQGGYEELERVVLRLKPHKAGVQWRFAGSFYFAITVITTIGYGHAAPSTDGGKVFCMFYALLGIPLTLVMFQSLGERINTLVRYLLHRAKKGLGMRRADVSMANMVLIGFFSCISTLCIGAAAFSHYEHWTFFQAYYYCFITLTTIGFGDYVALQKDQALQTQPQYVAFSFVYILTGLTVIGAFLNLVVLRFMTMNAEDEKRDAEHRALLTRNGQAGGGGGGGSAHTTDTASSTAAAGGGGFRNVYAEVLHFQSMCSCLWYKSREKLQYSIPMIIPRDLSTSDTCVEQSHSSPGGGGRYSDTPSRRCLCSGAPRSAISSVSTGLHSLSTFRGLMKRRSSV

As for `COc1ccccc1OCC(O)CN1CCN(CC(=O)Nc2c(C)cccc2C)CC1` (centres unmarked) [ranolazine], the pIC50 on TASK-1 is 4.51. Further, the inhibition at 300 µM on TASK-3 is 28.3%; at TALK-2, 34.9%; against TASK-2, 30%; against TALK-1, 23%.
